In patent US20080255031A1, “METHOD FOR ENHANCING INSULIN SECRETION” (priority 2007, published 2008):
In brackets after ≈: the same amount, converted by molar mass. Where two headings read alike, the source gives them in different places. Blank lines part the entries; values can stand above or below the compound they belong to.

Experiments:
CYP2D6 [1] = target: T1, CYP2D6 (Homo sapiens, UniProt P10635); experiment: biochemical
IKr [2] = target: T2, IKr (Canis lupus familiaris, UniProt Q9TSZ3); experiment: cell-based
T2 sequence (Q9TSZ3 1-1158): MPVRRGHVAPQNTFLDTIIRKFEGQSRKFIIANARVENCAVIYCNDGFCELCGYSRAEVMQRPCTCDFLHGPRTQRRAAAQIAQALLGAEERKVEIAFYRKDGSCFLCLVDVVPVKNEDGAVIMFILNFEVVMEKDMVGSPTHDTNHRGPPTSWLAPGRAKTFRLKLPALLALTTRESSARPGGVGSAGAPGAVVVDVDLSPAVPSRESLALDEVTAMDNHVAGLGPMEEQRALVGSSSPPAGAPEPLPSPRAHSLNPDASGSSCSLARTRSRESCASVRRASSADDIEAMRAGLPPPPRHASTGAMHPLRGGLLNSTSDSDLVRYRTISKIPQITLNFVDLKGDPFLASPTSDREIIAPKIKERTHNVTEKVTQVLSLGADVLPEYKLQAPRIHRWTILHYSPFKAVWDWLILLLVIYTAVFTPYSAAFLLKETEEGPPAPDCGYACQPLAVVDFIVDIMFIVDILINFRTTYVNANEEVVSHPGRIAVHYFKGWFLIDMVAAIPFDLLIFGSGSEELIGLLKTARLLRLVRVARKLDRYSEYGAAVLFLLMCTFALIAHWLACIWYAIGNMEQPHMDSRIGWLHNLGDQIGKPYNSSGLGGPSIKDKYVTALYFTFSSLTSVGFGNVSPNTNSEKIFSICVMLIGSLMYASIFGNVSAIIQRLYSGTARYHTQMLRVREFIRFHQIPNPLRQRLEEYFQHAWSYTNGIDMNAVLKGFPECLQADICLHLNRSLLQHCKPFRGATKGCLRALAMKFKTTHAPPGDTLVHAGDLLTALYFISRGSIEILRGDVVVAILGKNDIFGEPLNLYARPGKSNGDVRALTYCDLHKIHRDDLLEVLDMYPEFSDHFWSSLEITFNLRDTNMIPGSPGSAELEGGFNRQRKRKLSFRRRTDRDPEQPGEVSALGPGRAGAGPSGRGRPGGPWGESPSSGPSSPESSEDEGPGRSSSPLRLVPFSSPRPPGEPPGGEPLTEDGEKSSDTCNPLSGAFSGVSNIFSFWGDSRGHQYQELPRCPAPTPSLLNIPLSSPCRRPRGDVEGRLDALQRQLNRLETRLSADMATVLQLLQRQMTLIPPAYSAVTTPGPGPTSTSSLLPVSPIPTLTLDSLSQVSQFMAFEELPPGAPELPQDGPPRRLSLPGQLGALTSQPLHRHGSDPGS
Description: Whole cell currents were recorded from isolated canine left ventricular midmyocrdial cells at 37° C. IKr and IKs were recorded during standard pulse protocols. Action potentials recorded at basic cycle lengths (BCL) of 300 and 2000 ms were used as command waveforms during voltage claim to measure late INa. Enantiomeric effects were determined at concentrations of 3, 10, and 30 μM.
Late INa was evaluated at two voltages during the plateau and final repolarization of an action potential voltage claims.

[3] = Solubility in aqueous solutions by pH (Table 1); format: physicochemical
[4] = test system: rat isolated pancreatic islets; experiment: Glucose stimulated insulin secretion (GSIS) in rat isolated pancreatic islets; format: cell-based
Description: Rat islets were isolated from male Sprague-Dawley (SD) rats (8-12 weeks old, n=6) as described by Yang Z. et al. […] Insulin secretion assay was performed essentially as previously described by Liu D. et al. Steroids 2006, 71, 691-699. […] Insulin secreted in experimental samples was measured by a RIA kit (Mercodia, N.C.). All insulin secretion data in the present study were normalized to insulin secretion per islet. There was a biphasic response for insulin secretion to ranolazine.

CYP2D6 [5] = target: T1, CYP2D6; experiment: biochemical; remark: listed apart in the source
CYP2D6 [6] = target: T1, CYP2D6; experiment: Inhibitory effects on CYP2D6 in extensive metabolizers of dextromethorphan; format: in vivo; set-up: evaluated in extensive metabolizers of dextromethorphan; from tissue; host or cells: in vivo, subjects who are extensive metabolizers
[7] = patients; U.S. Patent Publication No. 2004/0063717; cited from earlier work
IKr [8] = target: T2, IKr; set-up: Whole cell currents were recorded from isolated canine left ventricular midmyocrdial cells; endogenous in cells; host or cells: isolated canine left ventricular midmyocardial cells; details: Zygmunt et al. (2002); cited from earlier work
IKs = details: Zygmunt et al. (2002); read-out: IC50 value (current not named); cited from earlier work
[9] = test system: human isolated pancreatic islets; experiment: GSIS in human isolated pancreatic islets; format: cell-based; details: one donor, 30 min incubation (Example 4, FIG. 4)
Description: Rat islets were isolated from male Sprague-Dawley (SD) rats (8-12 weeks old, n=6) as described by Yang Z. et al. […] Insulin secretion assay was performed essentially as previously described by Liu D. et al. Steroids 2006, 71, 691-699. […] Insulin secreted in experimental samples was measured by a RIA kit (Mercodia, N.C.). […] The procedure used for the human islets was the same as the procedure used in Example 1 above, except that the incubation period was 30 minutes, instead of the 60 minutes used in Example 1.

T1 sequence (P10635 whole entry): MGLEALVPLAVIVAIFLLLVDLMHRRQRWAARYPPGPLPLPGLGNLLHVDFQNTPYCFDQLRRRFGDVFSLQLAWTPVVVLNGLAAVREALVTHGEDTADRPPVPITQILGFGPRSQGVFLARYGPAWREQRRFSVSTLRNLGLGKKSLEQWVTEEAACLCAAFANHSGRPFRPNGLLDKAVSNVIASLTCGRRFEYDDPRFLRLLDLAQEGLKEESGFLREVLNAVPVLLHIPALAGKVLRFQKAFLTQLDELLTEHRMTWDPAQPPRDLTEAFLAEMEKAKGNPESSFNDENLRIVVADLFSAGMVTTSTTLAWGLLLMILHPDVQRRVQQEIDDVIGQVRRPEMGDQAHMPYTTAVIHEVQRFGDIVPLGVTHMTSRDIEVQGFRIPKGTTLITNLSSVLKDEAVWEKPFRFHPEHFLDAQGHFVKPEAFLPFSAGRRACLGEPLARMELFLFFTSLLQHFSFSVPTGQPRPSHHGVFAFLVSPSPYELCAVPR

IC50 (CYP2D6 [1]): 130 µM
Compound: COc1ccccc1OC[C@@H](O)CN1CCN(CC(=O)Nc2c(C)cccc2C)CC1 [S-ranolazine, (S)-(−)-N-(2,6-dimethylphenyl)-4-[2-hydroxy-3-(2-methoxyphenoxy)-propyl]-1-piperazineacetamide]
IC50 (IKr [2]): 10 ± 2 µM

USP Solubility Class ([3]; Solution pH 4.81): Freely Soluble | USP Solubility Class ([3]; Solution pH 4.89): Soluble | USP Solubility Class ([3]; Solution pH 4.90): Soluble | USP Solubility Class ([3]; Solution pH 5.04): Soluble | USP Solubility Class ([3]; Solution pH 5.35): Sparingly Soluble | USP Solubility Class ([3]; Solution pH 5.82): Slightly soluble | USP Solubility Class ([3]; Solution pH 6.46): Slightly soluble | USP Solubility Class ([3]; Solution pH 6.73): Very slightly soluble | USP Solubility Class ([3]; Solution pH 7.08): Very slightly soluble | USP Solubility Class ([3]; Solution pH 7.59 (unbuffered water)): Very slightly soluble | Solubility ([3]; Solution pH 7.79): 170 µg/mL (≈ 398 µM) | USP Solubility Class ([3]; Solution pH 7.79): Very slightly soluble | USP Solubility Class ([3]; Solution pH 12.66): Very slightly soluble | IC50 (CYP2D6 [5]): 324 µM | inhibition of CYP2D6 by ranolazine and/or metabolites (CYP2D6 [6]): partially inhibit CYP2D6
Compound: COc1ccccc1OCC(O)CN1CCN(CC(=O)Nc2c(C)cccc2C)CC1 (racemic) [ranolazine, (±)-N-(2,6-dimethylphenyl)-4-[2-hydroxy-3-(2-methoxyphenoxy)propyl]-1-piperazine-acetamide]
increase of insulin secretion (GSIS) ([4]; 1 nM to 1 μM, concentration-dependent, 20 mM glucose, 60 min): 2-5 fold | effect on GSIS ([4]; 10 μM, compared with 20 mM glucose alone): no significant effect on GSIS | HbA1c levels [7]: reduced HbA1c levels | IC50 (IKr [8]): 11 µM | IC50 (IKs): > 100 µM

IC50 (CYP2D6 [1]): 430 µM
Compound: COc1ccccc1OC[C@H](O)CN1CCN(CC(=O)Nc2c(C)cccc2C)CC1 [R-ranolazine, (R)-(+)-N-(2,6-dimethylphenyl)-4-[2-hydroxy-3-(2-methoxyphenoxy)-propyl]-1-piperazineacetamide]
IC50 (IKr [2]): 28 ± 4 µM | increasing the secretion of insulin in response to glucose [9]: significantly more effective
